Experiments:
[1] = system: Glomerella Lagenarium (Colletotrichum Lagenarium); test: Glomerella lagenarium (Colletotrichum lagenarium) liquid culture / cucumber / preventative (anthracnose); type: cell-based; conditions: Colletotrichum orbiculare; 20 ppm in the applied formulation; liquid culture in PDB, 24° C., inhibition of growth measured photometrically 3 to 4 days after application, vs untreated; read-out: disease control
Summary of the method: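 Conidia from cryogenic storage were mixed into potato dextrose broth. This was added to compound diluted from DMSO into 0.025% Tween20, tested at 20 ppm. Plates were incubated in the dark at 24 °C and 96% relative humidity, and growth was read photometrically after 2–7 days as % activity versus untreated check.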

[2] = system: Puccinia recondita f. Sp. Tritici; test: Puccinia recondita f. sp. tritici / wheat / leaf disc preventative (brown rust); type: in vivo; conditions: foliar, 168 h, 200 ppm in the applied formulation, wheat leaf segments cv. Kanzler, preventative, inoculated 1 day after application, assessed 7 to 9 days after application, vs untreated, read-out: disease control
Summary of the method: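 Preventative leaf-segment test: spray application of diluted formulated compound on wheat cv. Kanzler, spore inoculation after 1 day. Percent control relative to untreated segments rated 7 to 9 days post-application, with incubation at 19° C, 75% relative humidity, 12 h photoperiod.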

[3] = system: Phakopsora pachyrhizi; test: Phakopsora pachyrhizi / soybean / leaf disc preventative (Asian soybean rust); type: in vivo; conditions: foliar, 288 h, 200 ppm in the applied formulation, soybean leaf disks, inoculated one day after application, assessed 12 to 14 days after application, vs untreated, read-out: disease control
Summary of the method: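 Read-out is percent disease control relative to untreated check discs, assessed once untreated discs show adequate disease, 12 to 14 days after application. Compounds, tested at 200 ppm in the applied formulation, are sprayed onto soybean leaf discs one day before inoculation with a spore suspension.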

[4] = system: Puccinia recondita f. Sp. Tritici; test: Puccinia recondita f. sp. tritici / wheat / leaf disc curative (brown rust); type: in vivo; conditions: foliar, 144 h, 200 ppm in the applied formulation, wheat leaf segments cv. Kanzler, applied 1 day after inoculation, assessed 6 to 8 days after application, vs untreated, read-out: disease control
Summary of the method: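 Segments of wheat (cultivar Kanzler) sit on agar and are spore-inoculated first; after one day in darkness at 19° C and 75% RH the diluted formulated compound is sprayed on. A 12 h photoperiod follows at the same temperature and humidity before disease is scored against untreated controls.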

Question: With `CCc1cccc(CC)c1-n1ncc(-c2cn(Cc3ccc(-c4noc(C(F)(F)F)n4)cc3)nn2)c1C` [Compound 1.31, 3-[4-[[4-[1-(2,6-diethylphenyl)-5-methyl-pyrazol-4-yl]triazol-1-yl]methyl]phenyl]-5-(trifluoromethyl)-1,2,4-oxadiazole] as the molecule, how does the melting point read?
Answer: 157.6 to 161.9 °C

Question: With `FC(F)(F)c1ncn(Cc2ccc(-c3noc(C(F)(F)F)n3)cc2)n1` [Compound 1.39] as the molecule, how does the melting point read?
Answer: 68.2 to 70.1 °C

Question: Which melting point does the source give for `N#Cc1ncnn1Cc1ccc(-c2noc(C(F)(F)F)n2)cc1` [Compound 1.41, 2-[[4-[5-(trifluoromethyl)-1,2,4-oxadiazol-3-yl]phenyl]methyl]-1,2,4-triazole-3-carbonitrile] here?
Answer: 120 to 124 °C

Question: For `CN(C)C(=O)c1cnn(Cc2ccc(-c3noc(C(F)(F)F)n3)cc2)c1` [Compound 1.149, N,N-dimethyl-1-[[4-[5-(trifluoromethyl)-1,2,4-oxadiazol-3-yl]phenyl]methyl]pyrazole-4-carboxamide], which melting point is on record?
Answer: 124 to 129 °C

Question: For `CNC(=O)c1cnn(Cc2ccc(-c3noc(C(F)(F)F)n3)cc2)c1` [Compound 1.150, N-methyl-1-[[4-[5-(trifluoromethyl)-1,2,4-oxadiazol-3-yl]phenyl]methyl]pyrazole-4-carboxamide], which melting point is on record?
Answer: 156 to 161 °C

Question: Which melting point does the source give for `COC(=O)c1cnn(Cc2ccc(-c3noc(C(F)(F)F)n3)cc2)c1` [Compound 1.248, methyl 1-[[4-[5-(trifluoromethyl)-1,2,4-oxadiazol-3-yl]phenyl]methyl]pyrazole-4-carboxylate] here?
Answer: 122 to 129 °C

Question: With `CCOC(=O)c1cnn(Cc2ccc(-c3noc(C(F)(F)F)n3)c(F)c2)c1` [Compound 1.252, ethyl 1-[[3-fluoro-4-[5-(trifluoromethyl)-1,2,4-oxadiazol-3-yl]phenyl]methyl]pyrazole-4-carboxylate] as the molecule, how does the melting point read?
Answer: 131 to 135 °C

Question: For `CCN(CC)C(=O)c1cnn(Cc2ccc(-c3noc(C(F)(F)F)n3)cc2)c1` [Compound 1.259, N,N-diethyl-1-[[4-[5-(trifluoromethyl)-1,2,4-oxadiazol-3-yl]phenyl]methyl]pyrazole-4-carboxamide], which melting point is on record?
Answer: 86 to 96 °C

Question: For `CON(C)C(=O)c1cnn(Cc2ccc(-c3noc(C(F)(F)F)n3)cc2)c1` [Compound 1.260, N-methoxy-N-methyl-1-[[4-[5-(trifluoromethyl)-1,2,4-oxadiazol-3-yl]phenyl]methyl]pyrazole-4-carboxamide], which melting point is on record?
Answer: 102 to 112 °C

Question: Which melting point does the source give for `CCCOC(=O)c1cnn(Cc2ccc(-c3noc(C(F)(F)F)n3)cc2)c1` [Compound 1.264, propyl 1-[[4-[5-(trifluoromethyl)-1,2,4-oxadiazol-3-yl]phenyl]methyl]pyrazole-4-carboxylate] here?
Answer: 105 to 115 °C

Question: Which melting point does the source give for `CONC(=O)c1cnn(Cc2ccc(-c3noc(C(F)(F)F)n3)cc2)c1` [Compound 1.266, ~{N}-methoxy-1-[[4-[5-(trifluoromethyl)-1,2,4-oxadiazol-3-yl]phenyl]methyl]pyrazole-4-carboxamide] here?
Answer: 128 to 138 °C

Question: For `CCNC(=O)c1cnn(Cc2ccc(-c3noc(C(F)(F)F)n3)cc2)c1` [Compound 1.267, ~{N}-ethyl-1-[[4-[5-(trifluoromethyl)-1,2,4-oxadiazol-3-yl]phenyl]methyl]pyrazole-4-carboxamide], which melting point is on record?
Answer: 166 to 176 °C

Question: With `CON=Cc1cnn(Cc2ccc(-c3noc(C(F)(F)F)n3)cc2)c1` [Compound 1.285] as the molecule, how does the melting point read?
Answer: 88 to 98 °C

Question: With `CC1CN(Cc2ccc(-c3noc(C(F)(F)F)n3)cc2)CC(C)O1` (stereo not drawn) [Compound 1.306, 2,6-dimethyl-4-[[4-[5-(trifluoromethyl)-1,2,4-oxadiazol-3-yl]phenyl]methyl]morpholine] as the molecule, how does the inhibition of growth at 20 ppm [1] read?
Answer: ≥ 80%

Question: What about the pest or weed control at 200 ppm [2] of the same molecule?
Answer: ≥ 80%

Question: And the pest or weed control at 200 ppm [3]?
Answer: ≥ 80%

Question: What about the pest or weed control at 200 ppm [4] of the same molecule?
Answer: ≥ 80%

Question: With `N#CC(c1ccc(-c2noc(C(F)(F)F)n2)cc1)N1CCOCC1` (stereo not drawn) [Compound 1.312, 2-morpholino-2-[4-[5-(trifluoromethyl)-1,2,4-oxadiazol-3-yl]phenyl]acetonitrile] as the molecule, how does the inhibition of growth at 20 ppm [1] read?
Answer: ≥ 80%

Question: And the pest or weed control at 200 ppm [2]?
Answer: ≥ 80%

Question: And the pest or weed control at 200 ppm [3]?
Answer: ≥ 80%

Question: And the pest or weed control at 200 ppm [4]?
Answer: ≥ 80%
